The values below are quoted from earlier work in patent publication US20020038007A1, “Method of finding agonist and antagonist to human 11cb splice variant” (priority 1996, published 2002).

The conditions of series [1]: intracerebroventricular injection; Presse, F et al Neuroscience 1996.
The conditions of series [2]: injection into lateral ventricles of rats.

“H-Asp-Phe-Asp-Met-Leu-Arg-Cys-Met-Leu-Gly-Arg-Val-Tyr-Arg-Pro-Cys-Trp-Gln-Val-OH (H-DFDMLRCMLGRVYRPCWQV-OH; cysteine pairing not given here) [MCH]”: in series [1], the feeding result is listed as “inhibit feeding”. In addition, the food consumption result in series [2] is reported as “increased food consumption”.
